Reference: the NIST ThermoML archive (doi:10.1016/j.jct.2016.04.003)

Assay: xn = mol fraction of the nth substance listed
Settings: for surface tension liquid-gas: Drop volume; for viscosity / speed of sound / mass density: 99 kPa, Liquid; for viscosity: Capillary tube (Ostwald / Ubbelohde) method; for speed of sound: Frequency=3 MHz, Sing-around technique in a fixed-path interferometer; for mass density: Vibrating tube method

CCC[n+]1ccccc1.F[B-](F)(F)F [1-propylpyridinium tetrafluoroborate] + O
Settings | mass density [kg/m3] | speed of sound [m/s] | surface tension liquid-gas [mN/m] | viscosity [mPa·s]
293.15 K, x1 = 0.0185 | 1034.4 | 1537.2 | – | –
293.15 K, x1 = 0.028 | – | – | 58.5 | –
293.15 K, x1 = 0.0287 | 1050.5 | 1551 | – | –
293.15 K, x1 = 0.0466 | 1074 | 1568.7 | – | –
293.15 K, x1 = 0.0492 | – | – | – | 1.359
293.15 K, x1 = 0.0551 | – | – | 56.1 | –
293.15 K, x1 = 0.0766 | 1103.9 | 1590.8 | – | –
293.15 K, x1 = 0.0952 | – | – | – | 1.827
293.15 K, x1 = 0.0964 | 1119 | 1602.6 | – | –
293.15 K, x1 = 0.1008 | – | – | 54 | –
293.15 K, x1 = 0.1522 | – | – | 52.7 | –
293.15 K, x1 = 0.1948 | – | – | – | 2.933
293.15 K, x1 = 0.1965 | – | – | 52 | –
293.15 K, x1 = 0.2011 | 1169.1 | 1640.9 | – | –
293.15 K, x1 = 0.2588 | – | – | – | 4.438
293.15 K, x1 = 0.2858 | 1191.6 | 1651.5 | – | –
293.15 K, x1 = 0.2947 | – | – | 51.5 | –
293.15 K, x1 = 0.3451 | – | – | 51.4 | –
293.15 K, x1 = 0.3891 | – | – | – | 8.303
293.15 K, x1 = 0.3968 | – | – | 51.2 | –
293.15 K, x1 = 0.3993 | 1211.3 | 1654.2 | – | –
293.15 K, x1 = 0.4779 | – | – | 51.1 | –
293.15 K, x1 = 0.4894 | – | – | – | 13.36
293.15 K, x1 = 0.4979 | 1223.2 | 1651.5 | – | –
293.15 K, x1 = 0.5772 | 1230.6 | 1648.1 | – | –
293.15 K, x1 = 0.5827 | – | – | 51.1 | –
293.15 K, x1 = 0.5942 | – | – | – | 19.97
293.15 K, x1 = 0.6015 | 1232.5 | 1647.3 | – | –
293.15 K, x1 = 0.6695 | 1237.6 | 1645.8 | – | –
293.15 K, x1 = 0.6846 | – | – | 51 | –
293.15 K, x1 = 0.6952 | – | – | – | 33.13
293.15 K, x1 = 0.7309 | 1241.4 | 1645.4 | – | –
293.15 K, x1 = 0.7771 | 1244.2 | 1645.6 | – | –
293.15 K, x1 = 0.7861 | – | – | 51 | –
293.15 K, x1 = 0.7903 | – | – | – | 53.92
293.15 K, x1 = 0.8395 | 1247.6 | 1647.1 | – | –
293.15 K, x1 = 0.8862 | – | – | 51.1 | –
293.15 K, x1 = 0.8982 | – | – | – | 97.09
293.15 K, x1 = 0.9054 | 1251.2 | 1649.5 | – | –
293.15 K, x1 = 0.9425 | – | – | 51.2 | –
293.15 K, x1 = 0.943 | – | – | – | 124.2
293.15 K, x1 = 0.9633 | 1254.5 | 1652.1 | – | –
293.15 K, x1 = 1 | 1256.7 | 1653.9 | 51.3 | 160
303.15 K, x1 = 0.0185 | 1030.5 | 1550.2 | – | –
303.15 K, x1 = 0.028 | – | – | 57.2 | –
303.15 K, x1 = 0.0287 | 1046.1 | 1564 | – | –
303.15 K, x1 = 0.0466 | 1068.7 | 1581.1 | – | –
303.15 K, x1 = 0.0492 | – | – | – | 1.092
303.15 K, x1 = 0.0551 | – | – | 54.8 | –
303.15 K, x1 = 0.0766 | 1097.8 | 1599.5 | – | –
303.15 K, x1 = 0.0952 | – | – | – | 1.278
303.15 K, x1 = 0.0964 | 1112.5 | 1607.8 | – | –
303.15 K, x1 = 0.1008 | – | – | 52.8 | –
303.15 K, x1 = 0.1522 | – | – | 51.6 | –
303.15 K, x1 = 0.1948 | – | – | – | 2.334
303.15 K, x1 = 0.1965 | – | – | 50.9 | –
303.15 K, x1 = 0.2011 | 1161.7 | 1627.8 | – | –
303.15 K, x1 = 0.2588 | – | – | – | 3.141
303.15 K, x1 = 0.2858 | 1184.2 | 1630.3 | – | –
303.15 K, x1 = 0.2947 | – | – | 50.6 | –
303.15 K, x1 = 0.3451 | – | – | 50.5 | –
303.15 K, x1 = 0.3891 | – | – | – | 6.162
303.15 K, x1 = 0.3968 | – | – | 50.3 | –
303.15 K, x1 = 0.3993 | 1203.8 | 1629.5 | – | –
303.15 K, x1 = 0.4779 | – | – | 50.2 | –
303.15 K, x1 = 0.4894 | – | – | – | 9.757
303.15 K, x1 = 0.4979 | 1215.7 | 1627.3 | – | –
303.15 K, x1 = 0.5772 | 1223.1 | 1625.1 | – | –
303.15 K, x1 = 0.5827 | – | – | 50.3 | –
303.15 K, x1 = 0.5942 | – | – | – | 14.93
303.15 K, x1 = 0.6015 | 1225 | 1624.6 | – | –
303.15 K, x1 = 0.6695 | 1230 | 1623.3 | – | –
303.15 K, x1 = 0.6846 | – | – | 50.3 | –
303.15 K, x1 = 0.6952 | – | – | – | 22.56
303.15 K, x1 = 0.7309 | 1233.9 | 1622.6 | – | –
303.15 K, x1 = 0.7771 | 1236.7 | 1622.4 | – | –
303.15 K, x1 = 0.7861 | – | – | 50.3 | –
303.15 K, x1 = 0.7903 | – | – | – | 34.94
303.15 K, x1 = 0.8395 | 1240.2 | 1623 | – | –
303.15 K, x1 = 0.8862 | – | – | 50.3 | –
303.15 K, x1 = 0.8982 | – | – | – | 58.66
303.15 K, x1 = 0.9054 | 1243.9 | 1624.6 | – | –
303.15 K, x1 = 0.9425 | – | – | 50.4 | –
303.15 K, x1 = 0.943 | – | – | – | 70.68
303.15 K, x1 = 0.9633 | 1247.3 | 1627.3 | – | –
303.15 K, x1 = 1 | 1249.5 | 1629.8 | 50.5 | 90.75
